From patent publication US20150239889A1, “PYRAZOLOPYRIMIDINE COMPOUND” (MITSUBISHI TANABE PHARMA CORPORATION, priority 2012, published 2015)
pIC50: −log10 of the molar value.

Each compound was assayed against T1, human HIF-PHD2 (Homo sapiens, UniProt Q9GZT9) (assay: HIF-PHD inhibition assay (fluorescence polarization), human HIF-PHD2). Conditions: 2-oxoglutaric acid 3.33 μmol/L.
T1 construct: purchased CrystalGenomics Ltd
Assay type: biochemical
Method: (§1) The activity of the test compound to inhibit human HIF-PHD2 and human HIF-PHD3 was determined.
(§2) The value of enzyme activity was calculated by subtracting the value of fluorescence polarization before addition of the enzyme from the value of fluorescence polarization after addition of enzyme (mP value).
(§3) FAM: 5′-fluoresceinamide ACA: aminocaproic acid

T1 sequence (Q9GZT9 2-426 limits assumed): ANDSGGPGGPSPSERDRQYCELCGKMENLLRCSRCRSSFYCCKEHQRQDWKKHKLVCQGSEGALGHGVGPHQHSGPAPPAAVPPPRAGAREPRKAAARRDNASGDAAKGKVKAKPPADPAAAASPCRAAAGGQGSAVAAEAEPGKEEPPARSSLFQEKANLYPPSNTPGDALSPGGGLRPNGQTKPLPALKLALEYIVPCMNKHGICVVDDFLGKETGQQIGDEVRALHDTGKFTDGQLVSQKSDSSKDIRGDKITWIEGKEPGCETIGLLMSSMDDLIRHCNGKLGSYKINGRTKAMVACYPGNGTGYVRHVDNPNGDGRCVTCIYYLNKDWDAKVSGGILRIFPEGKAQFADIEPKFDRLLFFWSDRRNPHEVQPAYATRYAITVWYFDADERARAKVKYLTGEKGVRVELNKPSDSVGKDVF

SMILES | pIC50
CC[C@@H](c1ccc(Cl)c(Cl)c1)n1ncc2nc(-n3cc(C(=O)O)cn3)nc(O)c21 [Example 336] | 7.64
C[C@@H](c1cccc(Cl)c1F)n1ncc2nc(-n3cc(C(=O)O)cn3)nc(O)c21 [Example 279] | 6.92
CCC(c1cc(F)cc(F)c1)n1ncc2nc(-n3cc(C(=O)O)cn3)nc(O)c21 (single isomer, unassigned) [Example 333] | 7.34
O=C(O)c1cnn(-c2nc(O)c3c(cnn3C(c3cccc(Cl)c3)C3CC3)n2)c1 (single isomer, unassigned) [Example 375] | 7.28
Cc1cc(Cl)ccc1-c1ccc(Cn2ncc3nc(-n4cc(C(=O)O)cn4)nc(O)c32)cc1 [Example 71] | 7.80
CCCC(CCC)n1ncc2nc(-n3cc(C(=O)O)cn3)nc(O)c21 [Example 488] | 7.23
O=C(O)c1cnn(-c2nc(O)c3c(cnn3C(c3ccc(F)c(Cl)c3)C3CC3)n2)c1 (centres unmarked) [Example 370] | 7.25
O=C(O)c1cnn(-c2nc(O)c3c(cnn3[C@H]3CCN(c4ccc(Cl)c(Cl)c4)C3)n2)c1 [Example 438] | 7.89
CC1(C)CCC(n2ncc3nc(-n4cc(C(=O)O)cn4)nc(O)c32)CC1 [Example 386] | 7.42
Cc1cc(C(C2CC2)n2ncc3nc(-n4cc(C(=O)O)cn4)nc(O)c32)ccc1F (centres unmarked) [Example 376] | 7.14
Cc1cc(Cn2ncc3nc(-n4cc(C(=O)O)cn4)nc(O)c32)c(F)cc1-c1ccccc1F [Example 103] | 7.74
O=C(O)c1cnn(-c2nc(O)c3c(cnn3CC3(c4ccccc4)CCCC3)n2)c1 [Example 123] | 6.89
Cc1nn(CC(C)(C)C)c2c(O)nc(-n3cc(C(=O)O)cn3)nc12 [Example 500] | < 6.52
CCC1CCCC(n2ncc3nc(-n4cc(C(=O)O)cn4)nc(O)c32)C1 (centres unmarked) [Example 415] | 7.40
Cc1cc(F)cc(C(C)n2ncc3nc(-n4cc(C(=O)O)cn4)nc(O)c32)c1 (single isomer, unassigned) [Example 300] | 7.23
Cc1nn(CCC2CCCCC2)c2c(O)nc(-n3cc(C(=O)O)cn3)nc12 [Example 231] | 7.68
CCC(c1cc(F)cc(Cl)c1)n1ncc2nc(-n3cc(C(=O)O)cn3)nc(O)c21 (single isomer, unassigned) [Example 340] | 7.80
CCC1CCCC(n2ncc3nc(-n4cc(C(=O)O)cn4)nc(O)c32)C1 (centres unmarked) [Example 413] | 7.38
O=C(O)c1cnn(-c2nc(O)c3c(cnn3C(c3cc(F)cc(F)c3)C3CC3)n2)c1 (single isomer, unassigned) [Example 373] | 7.44
O=C(O)c1cnn(-c2nc(O)c3c(n2)c(Cl)nn3CC2CCCC2)c1 [Example 221] | 7.36
C[C@@H](c1ccc(C(F)(F)F)cc1)n1nc(C2CC2)c2nc(-n3cc(C(=O)O)cn3)nc(O)c21 [Example 456] | 7.28
Cc1nn(C2CCCCC2)c2c(O)nc(-n3cc(C(=O)O)cn3)nc12 [Example 227] | 6.89
O=C(O)c1cnn(-c2nc(O)c3c(cnn3CCCOc3ccc(C4CCCCC4)cc3)n2)c1 [Example 185] | 7.82

SMILES | pIC50
CCC(CC)Cn1ncc2nc(-n3cc(C(=O)O)cn3)nc(O)c21 [Example 494] | 7.05
CC(c1ccc(N2CCC(F)CC2)cc1)n1ncc2nc(-n3cc(C(=O)O)cn3)nc(O)c21 (racemic) [Example 424] | 7.36
Cc1ccc([C@H](C)n2ncc3nc(-n4cc(C(=O)O)cn4)nc(O)c32)cc1C [Example 259] | 7.36
Cc1ccc(C(C)n2ncc3nc(-n4cc(C(=O)O)cn4)nc(O)c32)cc1F (single isomer, unassigned) [Example 296] | 7.26
Cc1nn([C@@H](C)c2ccc(F)cc2F)c2c(O)nc(-n3cc(C(=O)O)cn3)nc12 [Example 451] | 7.04
CC1CC(n2ncc3nc(-n4cc(C(=O)O)cn4)nc(O)c32)CC(C)(C)C1 (centres unmarked) [Example 409] | 7.31
CC[C@@H](c1ccc(C)c(F)c1)n1ncc2nc(-n3cc(C(=O)O)cn3)nc(O)c21 [Example 345] | 7.28
CC(C)[C@H]1CC[C@H](C)C[C@H]1n1ncc2nc(-n3cc(C(=O)O)cn3)nc(O)c21 [Example 404] | 7.09
Cc1cc(C)cc(C(C)n2ncc3nc(-n4cc(C(=O)O)cn4)nc(O)c32)c1 (centres unmarked) [Example 309] | 7.03
CCC(CC)n1ncc2nc(-n3cc(C(=O)O)cn3)nc(O)c21 [Example 487] | 7.09
C[C@@H](c1cc(C(F)(F)F)ccc1C(F)(F)F)n1ncc2nc(-n3cc(C(=O)O)cn3)nc(O)c21 [Example 275] | 6.92
CCCC[C@H](C)n1ncc2nc(-n3cc(C(=O)O)cn3)nc(O)c21 [Example 497] | 7.28
O=C(O)c1cnn(-c2nc(O)c3c(n2)c(F)nn3CC2CCCCCC2)c1 [Example 464] | 7.77
O=C(O)c1cnn(-c2nc(O)c3c(cnn3CC3CCC(F)(F)CC3)n2)c1 [Example 143] | 7.82
C[C@@H](c1cc(F)ccc1F)n1ncc2nc(-n3cc(C(=O)O)cn3)nc(O)c21 [Example 261] | 7.14
C[C@@H](c1ccc(F)cc1F)n1nc(C2CC2)c2nc(-n3cc(C(=O)O)cn3)nc(O)c21 [Example 460] | 6.74
Cc1cc(Cl)cc([C@@H](C)n2ncc3nc(-n4cc(C(=O)O)cn4)nc(O)c32)c1 [Example 266] | 7.14
O=C(O)c1cnn(-c2nc(O)c3c(n2)c(Cc2ccccc2)nn3CC2CCCCC2)c1 [Example 504] | 6.80
C[C@@H](c1c(F)cccc1F)n1ncc2nc(-n3cc(C(=O)O)cn3)nc(O)c21 [Example 256] | 6.80
CCC(c1ccc(C)c(Cl)c1)n1ncc2nc(-n3cc(C(=O)O)cn3)nc(O)c21 (centres unmarked) [Example 348] | 6.96
O=C(O)c1cnn(-c2nc(O)c3c(cnn3Cc3ccc(N4CCCC4=O)cc3)n2)c1 [Example 419] | 7.36
CCC(c1cc(C(F)(F)F)cc(C(F)(F)F)c1)n1ncc2nc(-n3cc(C(=O)O)cn3)nc(O)c21 (single isomer, unassigned) [Example 335] | 7.12
O=C(O)c1cnn(-c2nc(O)c3c(cnn3CC3(c4ccccc4)CC3)n2)c1 [Example 122] | 7.13

The compounds below were run against T2, human HIF-PHD3 (Homo sapiens, UniProt Q9H6Z9) (assay: HIF-PHD inhibition assay (fluorescence polarization), human HIF-PHD3). Conditions: 2-oxoglutaric acid 166 μmol/L.
T2 construct: purchased CrystalGenomics Ltd
T2 sequence (Q9H6Z9 whole entry): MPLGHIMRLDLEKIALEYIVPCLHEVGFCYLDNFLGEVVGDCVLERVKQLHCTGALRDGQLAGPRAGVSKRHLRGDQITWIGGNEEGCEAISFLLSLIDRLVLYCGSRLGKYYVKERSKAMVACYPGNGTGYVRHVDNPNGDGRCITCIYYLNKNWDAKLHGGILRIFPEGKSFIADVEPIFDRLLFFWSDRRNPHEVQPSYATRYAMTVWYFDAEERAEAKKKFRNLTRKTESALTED
Assay type: biochemical
Method: as §1, §2, §3

SMILES | pIC50
CC[C@@H](c1ccc(Cl)c(Cl)c1)n1ncc2nc(-n3cc(C(=O)O)cn3)nc(O)c21 [Example 336] | 6.77
C[C@@H](c1cccc(Cl)c1F)n1ncc2nc(-n3cc(C(=O)O)cn3)nc(O)c21 [Example 279] | 6.25
CCC(c1cc(F)cc(F)c1)n1ncc2nc(-n3cc(C(=O)O)cn3)nc(O)c21 (single isomer, unassigned) [Example 333] | 6.49
O=C(O)c1cnn(-c2nc(O)c3c(cnn3C(c3cccc(Cl)c3)C3CC3)n2)c1 (single isomer, unassigned) [Example 375] | 6.30
Cc1cc(Cl)ccc1-c1ccc(Cn2ncc3nc(-n4cc(C(=O)O)cn4)nc(O)c32)cc1 [Example 71] | 6.96
CCCC(CCC)n1ncc2nc(-n3cc(C(=O)O)cn3)nc(O)c21 [Example 488] | 6.08
O=C(O)c1cnn(-c2nc(O)c3c(cnn3C(c3ccc(F)c(Cl)c3)C3CC3)n2)c1 (centres unmarked) [Example 370] | 6.42
O=C(O)c1cnn(-c2nc(O)c3c(cnn3[C@H]3CCN(c4ccc(Cl)c(Cl)c4)C3)n2)c1 [Example 438] | 6.85
CC1(C)CCC(n2ncc3nc(-n4cc(C(=O)O)cn4)nc(O)c32)CC1 [Example 386] | 6.08
Cc1cc(C(C2CC2)n2ncc3nc(-n4cc(C(=O)O)cn4)nc(O)c32)ccc1F (centres unmarked) [Example 376] | 6.11
Cc1cc(Cn2ncc3nc(-n4cc(C(=O)O)cn4)nc(O)c32)c(F)cc1-c1ccccc1F [Example 103] | 6.66
O=C(O)c1cnn(-c2nc(O)c3c(cnn3CC3(c4ccccc4)CCCC3)n2)c1 [Example 123] | 6.24
Cc1nn(CC(C)(C)C)c2c(O)nc(-n3cc(C(=O)O)cn3)nc12 [Example 500] | 6.12
CCC1CCCC(n2ncc3nc(-n4cc(C(=O)O)cn4)nc(O)c32)C1 (centres unmarked) [Example 415] | 6.16
Cc1cc(F)cc(C(C)n2ncc3nc(-n4cc(C(=O)O)cn4)nc(O)c32)c1 (single isomer, unassigned) [Example 300] | 6.31
Cc1nn(CCC2CCCCC2)c2c(O)nc(-n3cc(C(=O)O)cn3)nc12 [Example 231] | 6.33
CCC(c1cc(F)cc(Cl)c1)n1ncc2nc(-n3cc(C(=O)O)cn3)nc(O)c21 (single isomer, unassigned) [Example 340] | 6.52
CCC1CCCC(n2ncc3nc(-n4cc(C(=O)O)cn4)nc(O)c32)C1 (centres unmarked) [Example 413] | 6.17
O=C(O)c1cnn(-c2nc(O)c3c(cnn3C(c3cc(F)cc(F)c3)C3CC3)n2)c1 (single isomer, unassigned) [Example 373] | 6.19
O=C(O)c1cnn(-c2nc(O)c3c(n2)c(Cl)nn3CC2CCCC2)c1 [Example 221] | 6.17

SMILES | pIC50
C[C@@H](c1ccc(C(F)(F)F)cc1)n1nc(C2CC2)c2nc(-n3cc(C(=O)O)cn3)nc(O)c21 [Example 456] | 6.37
CC(c1cc(Cl)ccc1Cl)n1ncc2nc(-n3cc(C(=O)O)cn3)nc(O)c21 (racemic) [Example 264] | 6.31
Cc1nn(C2CCCCC2)c2c(O)nc(-n3cc(C(=O)O)cn3)nc12 [Example 227] | 5.42
O=C(O)c1cnn(-c2nc(O)c3c(cnn3CCCOc3ccc(C4CCCCC4)cc3)n2)c1 [Example 185] | 6.48
CCC(CC)Cn1ncc2nc(-n3cc(C(=O)O)cn3)nc(O)c21 [Example 494] | 6.06
CC(c1ccc(N2CCC(F)CC2)cc1)n1ncc2nc(-n3cc(C(=O)O)cn3)nc(O)c21 (racemic) [Example 424] | 6.32
Cc1ccc([C@H](C)n2ncc3nc(-n4cc(C(=O)O)cn4)nc(O)c32)cc1C [Example 259] | 6.16
Cc1ccc(C(C)n2ncc3nc(-n4cc(C(=O)O)cn4)nc(O)c32)cc1F (single isomer, unassigned) [Example 296] | 6.32
Cc1nn([C@@H](C)c2ccc(F)cc2F)c2c(O)nc(-n3cc(C(=O)O)cn3)nc12 [Example 451] | 6.08
CC1CC(n2ncc3nc(-n4cc(C(=O)O)cn4)nc(O)c32)CC(C)(C)C1 (centres unmarked) [Example 409] | 6.38
CC[C@@H](c1ccc(C)c(F)c1)n1ncc2nc(-n3cc(C(=O)O)cn3)nc(O)c21 [Example 345] | 6.08
C[C@@H](c1cc(Cl)ccc1Cl)n1ncc2nc(-n3cc(C(=O)O)cn3)[nH]c(=O)c21 [Example 263] | 6.21
CC(C)[C@H]1CC[C@H](C)C[C@H]1n1ncc2nc(-n3cc(C(=O)O)cn3)nc(O)c21 [Example 404] | 6.08
Cc1cc(C)cc(C(C)n2ncc3nc(-n4cc(C(=O)O)cn4)nc(O)c32)c1 (centres unmarked) [Example 309] | 6.17
CCC(CC)n1ncc2nc(-n3cc(C(=O)O)cn3)nc(O)c21 [Example 487] | 6.28
C[C@@H](c1cc(C(F)(F)F)ccc1C(F)(F)F)n1ncc2nc(-n3cc(C(=O)O)cn3)nc(O)c21 [Example 275] | 6.04
CCCC[C@H](C)n1ncc2nc(-n3cc(C(=O)O)cn3)nc(O)c21 [Example 497] | 6.05
O=C(O)c1cnn(-c2nc(O)c3c(n2)c(F)nn3CC2CCCCCC2)c1 [Example 464] | 6.36
O=C(O)c1cnn(-c2nc(O)c3c(cnn3CC3CCC(F)(F)CC3)n2)c1 [Example 143] | 5.92
O=C(O)c1cnn(-c2nc(O)c3c(cnn3CC3CCNCC3)n2)c1 [Example 169] | 5.68
